From PubChem BioAssay (NCI) come the findings set out here.

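Growth conditions: 96-well plates. Treatment: test compound, 48 hours, 5 concentrations. Analysis: linear interpolation between bracketing concentrations; unreached endpoints set to highest concentration. GI50 marks 50% less growth. TGI marks complete inhibition of growth.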

The term TGI denotes the concentration giving total growth inhibition. Low readings indicate more potent growth arrest, high ones less potent growth arrest. Usually GI50 stands for the concentration at which growth is held to half of that of the control.

Test systems include NCI/ADR-RES ovarian; HS 578T breast; MDA-N; XF 498 CNS; KM20L2 colon; HOP-18 NSCLC; RXF-631 renal.
Holding throughout (assay): DTP human tumour cell line panel, 48 h

As to `CC(=S)NC1C(Oc2ccc3c(C)cc(=O)oc3c2)OC(CO)C(O)C1O` (stereo not given), the TGI with NCI/ADR-RES ovarian, in the test with HS 578T breast and in the test on MDA-N was greater than 100 µM each time.
As for `C[Si](C)(C)C1=C2C(=O)c3ccccc3C(=O)C2=C([Si](C)(C)C)[C@@H]2CCCC[C@H]12`, the TGI in the test with MDA-N is greater than 100 µM.
For the compound `CC(C)OP(=O)(OC(C)C)c1ncn(-c2ccc([N+](=O)[O-])cc2)n1`, the TGI in the test on XF 498 CNS and in the test on KM20L2 colon was greater than 100 µM in each case.
Consider `Cc1cccc2ns[s+]c12`, for which the TGI with HOP-18 NSCLC and in the test on KM20L2 colon was greater than 100 µM in each case.
On to `COc1ccc2c(c1)CCC1C2CCC2(C)C1CC[C@@]2(O)CNC(=O)/C=C/c1ccc(O)c(O)c1` (stereo not given in full), for which, in the test on NCI/ADR-RES ovarian, the GI50 was 2.12 µM and the total growth inhibition concentration (TGI) was 5.83 µM. Further, in the test with HS 578T breast, the GI50 was 7.62 µM and the TGI is greater than 100 µM.
As to `O=C(CCc1nnc2s/c(=C\c3ccc(Cl)cc3Cl)c(=O)n12)Nc1cc(Cl)c(Cl)cc1Cl`, the total growth inhibition concentration (TGI) in the test on RXF-631 renal, in the test with HOP-18 NSCLC and with KM20L2 colon was greater than 100 µM each time. Moreover, the GI50 in the test on HOP-18 NSCLC and in the test on KM20L2 colon was greater than 100 µM each time.
As for `CN1C(=N\S(=O)(=O)c2ccc(Cl)cc2)/C(=N/N=P(c2ccccc2)(c2ccccc2)c2ccccc2)c2ccccc21`, the TGI in the test with XF 498 CNS, with RXF-631 renal and in the test with KM20L2 colon was greater than 100 µM throughout.
